Values of other authors as cited in PubChem BioAssay AID1259409 (Chemical Carcinogenesis Research Information System (CCRIS), 2018).

System: rodent chemically induced tumor inhibition, incidence and multiplicity
Test: CCRIS tumor inhibitor studies
Conditions: Carcinogen: DIETHYLNITROSAMINE, 55-18-5, N-METHYL-N-NITROSOUREA, 684-93-5, N-BUTYL-N-(4-HYDROXYBUTYL)NITROSAMINE, 3817-11-6, 1,2-DIM, Carcinogen: DIETHYLNITROSAMINE, 55-18-5, N-METHYL-N-NITROSOUREA, 684-93-5, N-BUTYL-N-(4-HYDROXYBUTYL)NITROSAMINE, 3817-11-6, 1,2-DIM, Dose [Inhibitor]: 0, 20 PPM IN DRINKING WATER FOR 23 WK BEGINNING 1 WK POST CARCINOGEN TREATMENT (STUDY DURATION: 28 WK), Route [Inhibitor]: ORAL, Species: RAT, Strain/Sex: F344/MALE, Dose [Carcinogen]: 100 MG/KG BW DEN ONCE, 20 MG/KG BW MNU ONCE ON DAYS 6,9, AND 12, 0.05% BBN IN DRINKING WATER FOR FIRST TWO WK, 40 MG/KG, Dose [Carcinogen]: 100 MG/KG BW DEN ONCE, 20 MG/KG BW MNU ONCE ON DAYS 6,9, AND 12, 0.05% BBN IN DRINKING WATER FOR FIRST TWO WK, 40 MG/KG

**Q.** Which results are given for `COc1ccc2c(c1)c(CC(=O)O)c(C)n2C(=O)c1ccc(Cl)cc1`?
**A.** tumour outcome (control, treated, inhibition, significance) (Target Tissue: Type of Lesion: LARGE INTESTINE: ADENOCARCINOMA, Promoter: NONE USED): 2/20 (10%), 0/19 (0%), 100%, not significant; tumour outcome (control, treated, inhibition, significance) (Target Tissue: Type of Lesion: LARGE INTESTINE: ADENOMA, Promoter: NONE USED): 3/20 (15%), 0/19 (0%), 100%, not significant; tumour outcome (control, treated, inhibition, significance) (Target Tissue: Type of Lesion: LIVER: HEPATOCELLULAR ADENOMA, HYPERPLASTIC NODULE, Promoter: NONE USED): 2/20 (10%), 7/19 (37%), -270%, not significant; outcome (Target Tissue: Type of Lesion: LIVER: HEPATOCELLULAR ADENOMA, Promoter: NONE): 0/20 (0%), 0/19 (0%), 0%, not significant; tumour outcome (control, treated, inhibition, significance) (Target Tissue: Type of Lesion: LUNG: ADENOCARCINOMA, Promoter: NONE UESD): 1/20 (5%), 0/19 (0%), 100%, not significant
